Measured values reported in PMC9764404 (ACS infectious diseases, 2022).

Legend:
Assay type in all cases: binding
LdtAb [1] = molecular target: T1, LdtAb (Acinetobacter baumannii, UniProt A0A222A2P4); assay: LC-MS of acyl-enzyme formation; settings: covalent, 2 μM enzyme, 200 μM antibiotic, PBS pH 7.4, 22 °C
LdtAb [2] = molecular target: T1, LdtAb; assay: acylation by reporter substrate; settings: covalent; very slow acylation
LdtAb [3] = molecular target: T1, LdtAb; assay: LC-MS of acyl-enzyme formation; settings: covalent; 2 μM enzyme, 200 μM antibiotic; PBS pH 7.4; 22 °C

SMILES	% acyl-enzyme after 18 h (LdtAb [1])	acylation by reporter substrate (data not shown) (LdtAb [2])	apparent acylation rate constant k2 (LdtAb [3])
C[C@@H](O)[C@H]1C(=O)N2C(C(=O)O)=C(S[C@@H]3CN[C@H](CNS(N)(=O)=O)C3)[C@H](C)[C@H]12 [doripenem]	21%	–	–
O=C(Cc1cccs1)N[C@@H]1C(=O)N2C(C(=O)O)=C(/C=C/c3ccc([N+](=O)[O-])cc3[N+](=O)[O-])CS[C@H]12 [nitrocefin]	–	acylation of LdtAb by nitrocefin took more than six hours to reach completion	–
C[C@@H](O)[C@H]1C(=O)N2C(C(=O)O)=C(SCCN=CN)C[C@H]12 [imipenem]	95%	–	–
C[C@@H](O)[C@H]1C(=O)N2C(C(=O)O)=C(S[C@@H]3CN[C@H](C(=O)Nc4cccc(C(=O)O)c4)C3)[C@H](C)[C@H]12 [ertapenem]	97%	–	0.22 ± 0.01 h⁻¹
C[C@@H](O)[C@H]1C(=O)N2C(C(=O)O)=C(S[C@@H]3CN[C@H](C(=O)N(C)C)C3)[C@H](C)[C@H]12 [meropenem]	48%	–	–
